According to patent US9302999B2, “Substituted triazoles as herbicides” (E. I. DU PONT DE NEMOURS AND COMPANY, priority 2012, dated 2016):

How the values were obtained:
Format in all cases: in vivo
[1] = tested on: wheat (Triticum aestivum); experiment: Test A pre-/postemergence: wheat; conditions: for Wheat plant response rating: Postemergence; for Plant response rating, Wheat: Preemergence
Summary of the method: (§1)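 Each species received preemergence soil-directed spraying and, at the same time, postemergence treatment of seedlings 2–10 cm tall. Formulation: non-phytotoxic solvent mixture including surfactant. Response assessed visually about ten days on, relative to untreated controls, 0–100 scale.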

[2] = tested on: ducksalad (Heteranthera limosa); experiment: Test C flooded paddy test: ducksalad; conditions: scale 0 to 100 (0 no effect, 100 complete control)
Excerpt: (§2) Plant species in the flooded paddy test consisted of rice (Oryza sativa), sedge, umbrella (small-flower umbrella sedge, Cyperus difformis), ducksalad (Heteranthera limosa) and barnyardgrass (Echinochloa crus-galli) grown to the 2-leaf stage for testing. At time of treatment, test pots were flooded to 3 cm above the soil surface, treated by application of test compounds directly to the paddy water, and then maintained at that water depth for the duration of the test.
(§3) Treated plants and controls were maintained in a greenhouse for 13 to 15 days, after which time all species were compared to controls and visually evaluated. Plant response ratings, summarized in Table C, are based on a scale of 0 to 100 where 0 is no effect and 100 is complete control. A dash (-) response means no test result.

[3] = tested on: foxtail, giant (giant foxtail, Setaria faberii); experiment: Test A pre-/postemergence: foxtail, giant; conditions: for Foxtail, Giant plant response rating: Postemergence; for Plant response rating, Foxtail, Giant: Preemergence
Summary of the method: as §1

[4] = tested on: velvetleaf (Abutilon theophrasti); experiment: Test A pre-/postemergence: velvetleaf; conditions: for Velvetleaf plant response rating: Postemergence; for Plant response rating, Velvetleaf: Preemergence
Summary of the method: as §1

corn (Zea mays) = experiment: Test A pre-/postemergence: corn; conditions: for Corn plant response rating: Postemergence; for Plant response rating, Corn: Preemergence
Summary of the method: as §1

[5] = tested on: barnyardgrass (Echinochloa crus-galli); experiment: Test C flooded paddy test: barnyardgrass; conditions: scale 0 to 100 (0 no effect, 100 complete control)
Summary of the method: (§4)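 Plants at 2-leaf stage in pots flooded 3 cm above soil; compounds applied directly into the paddy water, depth maintained. Visual rating against controls after 13–15 days in greenhouse, scale 0 (no effect) to 100 (complete control).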

[6] = tested on: crabgrass, large (large crabgrass, Digitaria sanguinalis); experiment: Test A pre-/postemergence: crabgrass, large; conditions: for Crabgrass, Large plant response rating: Postemergence; for Plant response rating, Crabgrass, Large: Preemergence
Summary of the method: as §1

[7] = tested on: sedge, umbrella (small-flower umbrella sedge, Cyperus difformis); experiment: Test C flooded paddy test: sedge, umbrella; conditions: scale 0 to 100 (0 no effect, 100 complete control)
Excerpt: as §2, §3

[8] = tested on: pigweed (Amaranthus retroflexus); experiment: Test A pre-/postemergence: pigweed; conditions: for Pigweed plant response rating: Postemergence; for Plant response rating, Pigweed: Preemergence
Summary of the method: as §1

rice (Oryza sativa) = experiment: Test C flooded paddy test: rice; conditions: scale 0 to 100 (0 no effect, 100 complete control)
Summary of the method: as §4

[9] = tested on: barnyardgrass (Echinochloa crus-galli); experiment: Test A pre-/postemergence: barnyardgrass; conditions: for Barnyardgrass plant response rating: Postemergence; for Plant response rating, Barnyardgrass: Preemergence
Summary of the method: as §1

[10] = tested on: morningglory (Ipomoea spp.); experiment: Test A pre-/postemergence: morningglory; conditions: for Morningglory plant response rating: Postemergence; for Plant response rating, Morningglory: Preemergence
Summary of the method: as §1

[11] = 125 g ai/ha, 0 to 100 scale, 0 is no effect, 100 is complete control
[12] = 500 g ai/ha, visual rating on 0 to 100 scale (0 no effect, 100 complete control), approximately ten days
[13] = 125 g ai/ha, 0 to 100 scale where 0 is no effect and 100 is complete control
[14] = 500 g ai/ha, 0 to 100 scale, 0 is no effect, 100 is complete control
[15] = Flood (flooded paddy test), 125 g ai/ha, visual rating after 13 to 15 days
[16] = Flood (flooded paddy test), 250 g ai/ha, visual rating after 13 to 15 days
[17] = 125 g ai/ha, 0 to 100 scale (0 no effect, 100 complete control)
[18] = Flood (flooded paddy test), 62 g ai/ha, visual rating after 13 to 15 days

SMILES: CCc1nn(-c2ccc(C(F)(F)F)cn2)nc1Cc1cccc(C(F)(F)F)c1 [Compound 108]
- Wheat plant response rating [1, 11]: 20
- Wheat plant response rating [1, 12]: 30
- Plant response rating, Wheat [1, 13]: 0
- Plant response rating, Wheat [1, 14]: 0
- Plant response rating, Ducksalad [2, 15]: 30
- Plant response rating, Ducksalad [2, 16]: 45
- Plant response rating, Ducksalad ([2]; Flood, 31 g ai/ha): 0
- Plant response rating, Ducksalad ([2]; Flood, 62 g ai/ha): 0
- Foxtail, Giant plant response rating [3, 11]: 60
- Foxtail, Giant plant response rating [3, 12]: 90
- Plant response rating, Foxtail, Giant [3, 13]: 80
- Plant response rating, Foxtail, Giant [3, 14]: 100
- Velvetleaf plant response rating [4, 11]: 60
- Velvetleaf plant response rating [4, 12]: 80
- Plant response rating, Velvetleaf [4, 13]: 0
- Plant response rating, Velvetleaf [4, 14]: 20
- Corn plant response rating (corn (Zea mays); [11]): 20
- Corn plant response rating (corn (Zea mays); [12]): 30
- Plant response rating, Corn (corn (Zea mays); [17]): 0
- Plant response rating, Corn (corn (Zea mays); [14]): 0
- Plant response rating, Barnyardgrass [5, 15]: 20
- Plant response rating, Barnyardgrass [5, 16]: 30
- Plant response rating, Barnyardgrass ([5]; Flood, 31 g ai/ha): 0
- Plant response rating, Barnyardgrass ([5]; Flood, 62 g ai/ha): 0
- Crabgrass, Large plant response rating [6, 11]: 90
- Crabgrass, Large plant response rating [6, 12]: 90
- Plant response rating, Crabgrass, Large [6, 17]: 90
- Plant response rating, Crabgrass, Large [6, 14]: 100
- Plant response rating, Sedge, Umbrella [7, 15]: 75
- Plant response rating, Sedge, Umbrella [7, 16]: 85
- Plant response rating, Sedge, Umbrella ([7]; Flood, 31 g ai/ha): 20
- Plant response rating, Sedge, Umbrella ([7]; Flood, 62 g ai/ha): 20
- Pigweed plant response rating [8, 11]: 90
- Pigweed plant response rating [8, 12]: 100
- Plant response rating, Pigweed [8, 13]: 80
- Plant response rating, Pigweed [8, 14]: 100
- Plant response rating, Rice (rice (Oryza sativa); [15]): 15
- Plant response rating, Rice (rice (Oryza sativa); [16]): 20
- Plant response rating, Rice (rice (Oryza sativa); Flood, 31 g ai/ha): 0
- Plant response rating, Rice (rice (Oryza sativa); Flood, 62 g ai/ha): 0
- Barnyardgrass plant response rating [9, 11]: 40
- Barnyardgrass plant response rating [9, 12]: 70
- Plant response rating, Barnyardgrass [9, 17]: 30
- Plant response rating, Barnyardgrass [9, 14]: 80
- Morningglory plant response rating [10, 11]: 100
- Morningglory plant response rating [10, 12]: 100
- Plant response rating, Morningglory [10, 13]: 0
- Plant response rating, Morningglory [10, 14]: 20

SMILES: Cc1nn(-c2ccc(C(F)(F)F)cc2)nc1C(=O)c1cccc(C(F)(F)F)c1 [Compound 45]
- Wheat plant response rating [1, 11]: 10
- Wheat plant response rating [1, 12]: 20
- Plant response rating, Wheat [1, 17]: 0
- Plant response rating, Wheat [1, 14]: 0
- Plant response rating, Ducksalad [2, 18]: 0
- Plant response rating, Ducksalad [2, 15]: 0
- Plant response rating, Ducksalad [2, 16]: 0
- Plant response rating, Ducksalad ([2]; Flood, 31 g ai/ha): 0
- Foxtail, Giant plant response rating [3, 11]: 20
- Foxtail, Giant plant response rating [3, 12]: 50
- Plant response rating, Foxtail, Giant [3, 17]: 50
- Plant response rating, Foxtail, Giant [3, 14]: 60
- Velvetleaf plant response rating [4, 11]: 40
- Velvetleaf plant response rating [4, 12]: 70
- Plant response rating, Velvetleaf [4, 17]: 0
- Plant response rating, Velvetleaf [4, 14]: 10
- Corn plant response rating (corn (Zea mays); [11]): 10
- Corn plant response rating (corn (Zea mays); [12]): 20
- Plant response rating, Corn (corn (Zea mays); [17]): 0
- Plant response rating, Corn (corn (Zea mays); [14]): 0
- Plant response rating, Barnyardgrass [5, 18]: 0
- Plant response rating, Barnyardgrass [5, 15]: 0
- Plant response rating, Barnyardgrass [5, 16]: 0
- Plant response rating, Barnyardgrass ([5]; Flood, 31 g ai/ha): 0
- Crabgrass, Large plant response rating [6, 11]: 60
- Crabgrass, Large plant response rating [6, 12]: 70
- Plant response rating, Crabgrass, Large [6, 17]: 70
- Plant response rating, Crabgrass, Large [6, 14]: 70
- Plant response rating, Sedge, Umbrella [7, 18]: 0
- Plant response rating, Sedge, Umbrella [7, 15]: 0
- Plant response rating, Sedge, Umbrella [7, 16]: 0
- Plant response rating, Sedge, Umbrella ([7]; Flood, 31 g ai/ha): 0
- Pigweed plant response rating [8, 11]: 100
- Pigweed plant response rating [8, 12]: 100
- Plant response rating, Pigweed [8, 17]: 10
- Plant response rating, Pigweed [8, 14]: 20
- Plant response rating, Rice (rice (Oryza sativa); [18]): 0
- Plant response rating, Rice (rice (Oryza sativa); [15]): 0
- Plant response rating, Rice (rice (Oryza sativa); [16]): 0
- Plant response rating, Rice (rice (Oryza sativa); Flood, 31 g ai/ha): 0
- Barnyardgrass plant response rating [9, 11]: 10
- Barnyardgrass plant response rating [9, 12]: 10
- Plant response rating, Barnyardgrass [9, 17]: 0
- Plant response rating, Barnyardgrass [9, 14]: 10
- Morningglory plant response rating [10, 11]: 40
- Morningglory plant response rating [10, 12]: 80
- Plant response rating, Morningglory [10, 17]: 0
- Plant response rating, Morningglory [10, 14]: 10

SMILES: Cc1nn(-c2cnc(Cl)cn2)nc1C(=O)c1cccc(C(F)(F)F)c1 [Compound 50]
- Wheat plant response rating [1, 11]: 0
- Wheat plant response rating [1, 12]: 0
- Plant response rating, Wheat [1, 17]: 0
- Plant response rating, Wheat [1, 14]: 0
- Plant response rating, Ducksalad [2, 18]: 0
- Plant response rating, Ducksalad [2, 16]: 0
- Foxtail, Giant plant response rating [3, 11]: 0
- Foxtail, Giant plant response rating [3, 12]: 10
- Plant response rating, Foxtail, Giant [3, 17]: 10
- Plant response rating, Foxtail, Giant [3, 14]: 40
- Velvetleaf plant response rating [4, 11]: 0
- Velvetleaf plant response rating [4, 12]: 10
- Plant response rating, Velvetleaf [4, 17]: 0
- Plant response rating, Velvetleaf [4, 14]: 0
- Corn plant response rating (corn (Zea mays); [11]): 0
- Corn plant response rating (corn (Zea mays); [12]): 10
- Plant response rating, Corn (corn (Zea mays); [17]): 0
- Plant response rating, Corn (corn (Zea mays); [14]): 0
- Plant response rating, Barnyardgrass [5, 18]: 0
- Plant response rating, Barnyardgrass [5, 16]: 0
- Crabgrass, Large plant response rating [6, 11]: 0
- Crabgrass, Large plant response rating [6, 12]: 10
- Plant response rating, Crabgrass, Large [6, 17]: 10
- Plant response rating, Crabgrass, Large [6, 14]: 20
- Plant response rating, Sedge, Umbrella [7, 18]: 0
- Plant response rating, Sedge, Umbrella [7, 16]: 0
- Pigweed plant response rating [8, 11]: 10
- Pigweed plant response rating [8, 12]: 20
- Plant response rating, Pigweed [8, 17]: 0
- Plant response rating, Pigweed [8, 14]: 10
- Plant response rating, Rice (rice (Oryza sativa); [18]): 0
- Plant response rating, Rice (rice (Oryza sativa); [16]): 0
- Barnyardgrass plant response rating [9, 11]: 0
- Barnyardgrass plant response rating [9, 12]: 10
- Plant response rating, Barnyardgrass [9, 17]: 0
- Plant response rating, Barnyardgrass [9, 14]: 0
- Morningglory plant response rating [10, 11]: 0
- Morningglory plant response rating [10, 12]: 10
- Plant response rating, Morningglory [10, 17]: 0
- Plant response rating, Morningglory [10, 14]: 0
